Results reported in patent US9980943B2, “Methods of treating muscular dystrophy” (BOARD OF REGENTS OF THE NEVADA SYSTEM OF HIGHER EDUCATION, …, priority 2013, dated 2018).
Like-named read-outs stand apart in the source and are kept apart here.

Tests used:
Type in all cases: cell-based, mouse
[1] = tested on: α7 integrin (LacZ reporter in α7βgal+/− myoblasts); assay: Myoblast α7+/LacZ integrin FDG assay (Burkin assay in myoblasts, 96-well); details: α7+/LacZ myoblasts, 96-well; for fold induction at 0.5 µM / fold induction at 1 µM / fold induction at 5 µM / fold induction at 10 µM / fold induction at 20 µM / fold induction at 40 µM: Mus musculus, Myoblast, 48 h
[2] = tested on: α7 integrin (LacZ reporter in α7+/LacZ myotubes); assay: Myotube α7 integrin FDG assay (Burkin assay in myotubes, 96-well); details: myotubes; for fold induction at 0.5 µM / fold induction at 1 µM / fold induction at 5 µM / fold induction at 10 µM / fold induction at 20 µM / fold induction at 40 µM: Mus musculus, Myotube
[3] = tested on: β-galactosidase in CMV-LacZ C2C12 myoblasts; assay: CMV-LacZ secondary screen in C2C12 myoblasts (β-Gal stabilizing assay); details: CMV-LacZ C2C12 myoblasts
Method in brief: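 β-gal stabilization was measured in C2C12 myoblasts or myotubes stably transfected with a CMV-driven LacZ construct, using the FDG β-gal assay. Compounds were tested in dose-response at 0.5, 1, 5, 10, 20 and 40 μM, with two replicates per point.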

[4] = tested on: β-galactosidase in CMV-LacZ C2C12 myotubes; assay: CMV-LacZ secondary screen in C2C12 myotubes (β-Gal stabilizing assay); details: C2C12 CMV-LacZ myotubes, fold relative to DMSO
Method in brief: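 Stable CMV-LacZ C2C12 clone; six-point curve 0.5–40 μM; duplicates.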

CCOC(=O)C1CCCN(C(=O)CNS(=O)(=O)c2ccc(Br)s2)C1 (stereo not drawn) [MLS000086970-01]
fold induction at 0.5 µM ([1]; 0.5 uM, read-out: Burkin Assay in Myoblasts, signal relative to DMSO): 0.982
fold induction at 0.5 µM ([1]; 0.5 uM, read-out: Burkin Assay in Myoblasts, value relative to DMSO): 1.01
fold induction at 1 µM ([1]; 1 uM, read-out: Burkin Assay in Myoblasts, signal relative to DMSO): 1.07
fold induction at 1 µM ([1]; 1 uM, read-out: Burkin Assay in Myoblasts, value relative to DMSO): 1.2
fold induction at 5 µM ([1]; 5 uM, read-out: Burkin Assay in Myoblasts, signal relative to DMSO): 0.858
fold induction at 5 µM ([1]; 5 uM, read-out: Burkin Assay in Myoblasts, value relative to DMSO): 1.6
fold induction at 10 µM ([1]; 10 uM, read-out: Burkin Assay in Myoblasts, signal relative to DMSO): 0.872
fold induction at 10 µM ([1]; 10 uM, read-out: Burkin Assay in Myoblasts, value relative to DMSO): 0.955
fold induction at 20 µM ([1]; 20 uM, read-out: Burkin Assay in Myoblasts, signal relative to DMSO): 0.854
fold induction at 20 µM ([1]; 20 uM, read-out: Burkin Assay in Myoblasts, value relative to DMSO): 1.02
fold induction at 40 µM ([1]; 40 uM, read-out: Burkin Assay in Myoblasts, signal relative to DMSO): 0.781
fold induction at 40 µM ([1]; 40 uM, read-out: Burkin Assay in Myoblasts, value relative to DMSO): 0.934
fold induction at 0.5 µM ([2]; 0.5 uM, read-out: Burkin Assay in Myotubes (signal relative to DMSO)): 0.953
fold induction at 1 µM ([2]; 1 uM, read-out: Burkin Assay in Myotubes (signal relative to DMSO)): 0.922
fold induction at 5 µM ([2]; 5 uM, read-out: Burkin Assay in Myotubes (signal relative to DMSO)): 1.09
fold induction at 10 µM ([2]; 10 uM, read-out: Burkin Assay in Myotubes (signal relative to DMSO)): 0.961
fold induction at 20 µM ([2]; 20 uM, read-out: Burkin Assay in Myotubes (signal relative to DMSO)): 0.931
fold induction at 40 µM ([2]; 40 uM, read-out: Burkin Assay in Myotubes (signal relative to DMSO)): 0.887
fold induction at 0.5 µM ([2]; 0.5 uM, read-out: Burkin Assay in Myotubes, α7 integrin LacZ reporter signal relative to DMSO): 1
fold induction at 1 µM ([2]; 1 uM, read-out: Burkin Assay in Myotubes, α7 integrin LacZ reporter signal relative to DMSO): 1.09
fold induction at 5 µM ([2]; 5 uM, read-out: Burkin Assay in Myotubes, α7 integrin LacZ reporter signal relative to DMSO): 0.864
fold induction at 10 µM ([2]; 10 uM, read-out: Burkin Assay in Myotubes, α7 integrin LacZ reporter signal relative to DMSO): 0.958
fold induction at 20 µM ([2]; 20 uM, read-out: Burkin Assay in Myotubes, α7 integrin LacZ reporter signal relative to DMSO): 0.961
fold induction at 40 µM ([2]; 40 uM, read-out: Burkin Assay in Myotubes, α7 integrin LacZ reporter signal relative to DMSO): 0.971
CMV-LACZ in Myoblasts (β-galactosidase activity relative to DMSO) ([3]; 0.5 uM): 0.9925
CMV-LACZ in Myoblasts (β-galactosidase activity relative to DMSO) ([3]; 1 uM): 1.0504
CMV-LACZ in Myoblasts (β-galactosidase activity relative to DMSO) ([3]; 5 uM): 0.8994
CMV-LACZ in Myoblasts (β-galactosidase activity relative to DMSO) ([3]; 10 uM): 0.9068
CMV-LACZ in Myoblasts (β-galactosidase activity relative to DMSO) ([3]; 20 uM): 1.0197
CMV-LACZ in Myoblasts (β-galactosidase activity relative to DMSO) ([3]; 40 uM): 0.8880
fold induction at 0.5 µM ([4]; Mus musculus, C2C12, read-out: CMV-LACZ in Myotubes, signal relative to DMSO, 0.5 uM): 0.967
fold induction at 1 µM ([4]; Mus musculus, C2C12, read-out: CMV-LACZ in Myotubes, signal relative to DMSO, 1 uM): 0.885
fold induction at 5 µM ([4]; Mus musculus, C2C12, read-out: CMV-LACZ in Myotubes, signal relative to DMSO, 5 uM): 1.11
fold induction at 10 µM ([4]; Mus musculus, C2C12, read-out: CMV-LACZ in Myotubes, signal relative to DMSO, 10 uM): 0.974
fold induction at 20 µM ([4]; Mus musculus, C2C12, read-out: CMV-LACZ in Myotubes, signal relative to DMSO, 20 uM): 0.987
fold induction at 40 µM ([4]; Mus musculus, C2C12, read-out: CMV-LACZ in Myotubes, signal relative to DMSO, 40 uM): 0.988

O=C1Nc2ccccc2/C1=C/c1ccccc1F [MLS001202389-01]
Burkin Assay in Myoblasts, signal relative to DMSO ([1]; 0.5 uM): 0.9323
Burkin Assay in Myoblasts, signal relative to DMSO ([1]; 1 uM): 0.9481
Burkin Assay in Myoblasts, signal relative to DMSO ([1]; 5 uM): 1.009
Burkin Assay in Myoblasts, signal relative to DMSO ([1]; 10 uM): 1.1004
Burkin Assay in Myoblasts, signal relative to DMSO ([1]; 20 uM): 0.5816
Burkin Assay in Myoblasts, signal relative to DMSO ([1]; 40 uM): 0.2556
Burkin Assay in Myotubes, α7 integrin LacZ reporter signal relative to DMSO ([2]; 0.5 uM): 0.9181
Burkin Assay in Myotubes, α7 integrin LacZ reporter signal relative to DMSO ([2]; 1 uM): 0.9393
Burkin Assay in Myotubes, α7 integrin LacZ reporter signal relative to DMSO ([2]; 5 uM): 0.9936
Burkin Assay in Myotubes, α7 integrin LacZ reporter signal relative to DMSO ([2]; 10 uM): 1.053
Burkin Assay in Myotubes, α7 integrin LacZ reporter signal relative to DMSO ([2]; 20 uM): 0.6412
Burkin Assay in Myotubes, α7 integrin LacZ reporter signal relative to DMSO ([2]; 40 uM): 0.5594
CMV-LACZ in Myoblasts (β-galactosidase activity relative to DMSO) ([3]; 0.5 uM): 1.0237
CMV-LACZ in Myoblasts (β-galactosidase activity relative to DMSO) ([3]; 1 uM): 1.1108
CMV-LACZ in Myoblasts (β-galactosidase activity relative to DMSO) ([3]; 5 uM): 1.0084
CMV-LACZ in Myoblasts (β-galactosidase activity relative to DMSO) ([3]; 10 uM): 0.8920
CMV-LACZ in Myoblasts (β-galactosidase activity relative to DMSO) ([3]; 20 uM): 0.6115
CMV-LACZ in Myoblasts (β-galactosidase activity relative to DMSO) ([3]; 40 uM): 0.5081
CMV-LACZ in Myotubes, signal relative to DMSO ([4]; 0.5 uM): 1.1558
CMV-LACZ in Myotubes, signal relative to DMSO ([4]; 1 uM): 1.1821
CMV-LACZ in Myotubes, signal relative to DMSO ([4]; 5 uM): 1.0432
CMV-LACZ in Myotubes, signal relative to DMSO ([4]; 10 uM): 1.1312
CMV-LACZ in Myotubes, signal relative to DMSO ([4]; 20 uM): 1.0900
CMV-LACZ in Myotubes, signal relative to DMSO ([4]; 40 uM): 0.9311

c1ccc(-c2cc(-c3nc4ccccc4[nH]3)c3ccccc3n2)cc1 [MLS000554416-01]
Burkin Assay in Myoblasts, signal relative to DMSO ([1]; 0.5 uM): 1.211
Burkin Assay in Myoblasts, signal relative to DMSO ([1]; 1 uM): 1.0679
Burkin Assay in Myoblasts, signal relative to DMSO ([1]; 5 uM): 0.9915
Burkin Assay in Myoblasts, signal relative to DMSO ([1]; 10 uM): 0.9591
Burkin Assay in Myoblasts, signal relative to DMSO ([1]; 20 uM): 1.087
Burkin Assay in Myoblasts, signal relative to DMSO ([1]; 40 uM): 0.8248
Burkin Assay in Myotubes, α7 integrin LacZ reporter signal relative to DMSO ([2]; 0.5 uM): 0.9146
Burkin Assay in Myotubes, α7 integrin LacZ reporter signal relative to DMSO ([2]; 1 uM): 0.9261
Burkin Assay in Myotubes, α7 integrin LacZ reporter signal relative to DMSO ([2]; 5 uM): 0.8366
Burkin Assay in Myotubes, α7 integrin LacZ reporter signal relative to DMSO ([2]; 10 uM): 0.9334
Burkin Assay in Myotubes, α7 integrin LacZ reporter signal relative to DMSO ([2]; 20 uM): 0.6816
Burkin Assay in Myotubes, α7 integrin LacZ reporter signal relative to DMSO ([2]; 40 uM): 0.4915
CMV-LACZ in Myoblasts (β-galactosidase activity relative to DMSO) ([3]; 0.5 uM): 1.1310
CMV-LACZ in Myoblasts (β-galactosidase activity relative to DMSO) ([3]; 1 uM): 1.3983
CMV-LACZ in Myoblasts (β-galactosidase activity relative to DMSO) ([3]; 5 uM): 0.8594
CMV-LACZ in Myoblasts (β-galactosidase activity relative to DMSO) ([3]; 10 uM): 1.1123
CMV-LACZ in Myoblasts (β-galactosidase activity relative to DMSO) ([3]; 20 uM): 1.1077
CMV-LACZ in Myoblasts (β-galactosidase activity relative to DMSO) ([3]; 40 uM): 0.8611
CMV-LACZ in Myotubes, signal relative to DMSO ([4]; 0.5 uM): 1.0019
CMV-LACZ in Myotubes, signal relative to DMSO ([4]; 1 uM): 0.9629
CMV-LACZ in Myotubes, signal relative to DMSO ([4]; 5 uM): 0.8969
CMV-LACZ in Myotubes, signal relative to DMSO ([4]; 10 uM): 0.9798
CMV-LACZ in Myotubes, signal relative to DMSO ([4]; 20 uM): 0.8760
CMV-LACZ in Myotubes, signal relative to DMSO ([4]; 40 uM): 0.7060
